# Measurements: US10912815B2, “Inhibitors of mitochondrial fission and methods of use thereof” (The Board of Trustees of the Leland Stanford Junior …, priority 2011, dated 2021)
# No end group written: not given here.
# Experiments:
# SH-SY5Y cells [1] = assay: Apoptosis of SH-SY5Y cells by annexin V staining; type: cell-based, human; settings: 8 hours after MPP+ exposure, FIG. 9B
# Protocol: Apoptosis was determined by annexin V staining 8 hours after MPP+ exposure. The number of apoptotic cells was expressed as mean±S.E. of percentage relative to total number of cells.
# OPA1 = biological target: T1, OPA1 (Homo sapiens, UniProt O60313); assay: In vitro GTPase assay, recombinant OPA1; type: biochemical; settings: recombinant OPA1 25 ng, FIG. 2B
# T1 sequence (O60313 88-960): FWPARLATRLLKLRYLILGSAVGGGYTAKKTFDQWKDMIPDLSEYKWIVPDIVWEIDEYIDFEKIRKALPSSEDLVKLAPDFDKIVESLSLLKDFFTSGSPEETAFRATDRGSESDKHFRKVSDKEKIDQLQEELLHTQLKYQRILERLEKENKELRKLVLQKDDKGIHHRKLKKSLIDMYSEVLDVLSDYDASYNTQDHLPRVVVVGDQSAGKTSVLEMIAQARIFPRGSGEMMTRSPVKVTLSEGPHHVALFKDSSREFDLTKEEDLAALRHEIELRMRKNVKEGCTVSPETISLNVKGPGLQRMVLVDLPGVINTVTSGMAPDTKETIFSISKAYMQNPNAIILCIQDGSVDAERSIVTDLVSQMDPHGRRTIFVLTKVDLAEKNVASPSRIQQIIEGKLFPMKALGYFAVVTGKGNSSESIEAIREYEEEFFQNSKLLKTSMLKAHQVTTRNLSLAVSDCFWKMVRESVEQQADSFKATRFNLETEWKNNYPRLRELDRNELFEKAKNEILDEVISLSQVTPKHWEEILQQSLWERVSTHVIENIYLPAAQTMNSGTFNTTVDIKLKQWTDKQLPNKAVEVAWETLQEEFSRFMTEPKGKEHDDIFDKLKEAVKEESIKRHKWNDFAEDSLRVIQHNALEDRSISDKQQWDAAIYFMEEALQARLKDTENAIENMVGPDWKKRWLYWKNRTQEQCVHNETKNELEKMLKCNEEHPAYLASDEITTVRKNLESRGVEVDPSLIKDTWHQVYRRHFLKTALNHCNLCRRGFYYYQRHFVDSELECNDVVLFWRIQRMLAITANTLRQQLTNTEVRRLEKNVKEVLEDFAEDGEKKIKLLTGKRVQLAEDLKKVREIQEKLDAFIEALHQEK
# Protocol: (§1) First, mitochondrial fission inhibitor constructs were tested to determine what, if any, effects each peptide had on enzyme (GTPase) activity. Recombinant protein Drp1, Mfn1, OPA1 or dynamin-1 (25 ng) was incubated with the indicated modulator peptides for 30 min. GTPase activity was assayed in vitro using a GTPase assay kit (Innova Biosciences, Littleton, USA, or Novus Biologicals, Littleton, Colo.) according to manufacturer's instructions.
# SH-SY5Y cells [2] = assay: Apoptosis markers on mitochondria of SH-SY5Y cells (western blot: NT-Bax, cytochrome c, Bcl-2); type: cell-based, human; settings: MPP+ 2 mM 1 hour, FIG. 9A
# Protocol: SH-SY5Y neuronal cells were treated with P110 followed by the exposure to MPP+(2 mM for 1 hour). Active form of Bax (NT-Bax), cytochrome c and Bcl-2 on the mitochondria were determined by western blot analysis with the indicated antibodies. Shown are representative data of three independent experiments. Quantification of the data are provided as mean±SE of three independent experiments.
# [3] = test system: Primary rat dopaminergic neurons; assay: Mitochondrial fragmentation in primary dopaminergic neurons exposed to MPP+; type: cell-based; settings: P110 1 μM, MPP+ 1 μM, 15 hrs, FIG. 10B
# Protocol: Primary rat dopaminergic neurons (cultured for 6 days) were treated without or with P110 (1 μM) followed by treatment with or without MPP+(1 μM). Two hrs following MPP+ treatment, the cells were stained with MITOSOX™ red (to measure mitochondrial superoxide production) and anti-TH antibody (a marker of dopaminergic neurons). Fifteen hrs after MPP+ treatment, cells were stained with anti-TH antibody and anti-Tom20 antibody (a marker of mitochondria).
# Recombinant protein Drp1 = Recombinant protein Drp1 (Homo sapiens, UniProt O00429); assay: In vitro GTPase assay, recombinant Drp1; type: biochemical
# Sequence of Recombinant protein Drp1 (O00429 1-710 isoform O00429-3): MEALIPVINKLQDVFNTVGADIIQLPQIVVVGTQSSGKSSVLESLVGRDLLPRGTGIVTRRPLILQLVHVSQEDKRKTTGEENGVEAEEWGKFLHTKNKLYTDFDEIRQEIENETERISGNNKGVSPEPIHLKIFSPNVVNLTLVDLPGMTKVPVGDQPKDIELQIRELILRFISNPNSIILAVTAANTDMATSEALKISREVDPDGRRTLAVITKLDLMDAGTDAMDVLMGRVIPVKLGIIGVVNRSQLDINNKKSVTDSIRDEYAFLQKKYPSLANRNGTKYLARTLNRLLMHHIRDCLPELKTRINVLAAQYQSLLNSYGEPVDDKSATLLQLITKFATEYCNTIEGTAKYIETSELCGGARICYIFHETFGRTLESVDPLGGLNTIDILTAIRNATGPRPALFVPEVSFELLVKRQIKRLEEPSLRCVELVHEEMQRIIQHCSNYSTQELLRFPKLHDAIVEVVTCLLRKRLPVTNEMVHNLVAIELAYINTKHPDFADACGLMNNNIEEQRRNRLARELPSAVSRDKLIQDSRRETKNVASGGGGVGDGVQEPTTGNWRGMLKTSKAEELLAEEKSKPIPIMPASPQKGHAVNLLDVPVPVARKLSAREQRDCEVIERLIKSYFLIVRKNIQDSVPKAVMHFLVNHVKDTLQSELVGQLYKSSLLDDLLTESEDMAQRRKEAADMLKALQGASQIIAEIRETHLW
# Protocol: as §1
# SH-SY5Y cells [4] = assay: Mitochondrial superoxide production in SH-SY5Y cells (MITOSOX red); type: cell-based, human; settings: peptide 1 μM, MPP+ 2 mM 2 hrs, FIG. 6A, FIG. 7
# Protocol: The effects of MPP+ or CCCP on translocation of Drp1 in the absence and presence of P110 was measured using confocal microscopy. Cultured SH-SY5Y cells in black 96-well plate were treated with Drp1 peptide inhibitor P110 (1 μM) 30 min prior to treatment of MPP+ (2 mM) or CCCP (5 uM). After 2 hrs of treatment, cells were stained with MITOSOX™ (red mitochondrial superoxide indicator) (5 uM, for 10 min, mitochondrial ROS) or TMRM (0.5 uM, for 20 min, MMP) at 37° C. For total ROS detection, cells were treated with MPP+ or CCCP for 24 hrs. ROS level was measured by CM-H2DCFDA (1 μM for 30 min, Invitrogen). Cells were washed with PBS for three times. The detection was performed in a fluorescence microplate reader (Tecan, Infinite M1000) according to manufacturer's instructions. Measurements were normalized to the cell number counted using Hoechst staining.
# SH-SY5Y cells were treated with P110 (1 μM) followed by incubation of MPP+ (2 mM) for 2 hrs. Mitochondrial superoxide production was determined using the mitochondrial superoxide indicator, MITOSOX™ red (red mitochondrial superoxide indicator). Nuclei were stained with Hoechst (blue). This experiment included the analysis of P110 alanine-scan analogs, further determine the contribution of each of the amino acids of the P110 fission inhibitor peptide sequence on the bioactivity of the peptide.
sequence,measurement,setting,value
"RRRQRRKKRGYGGDLLPRGS (RRRQRRKKRGYGGDLLPRGS-NH2) [P110, TAT47-57 carrier, GG linker, Drp1 region 110 (GTPase domain) peptide DLLPRGS; C-terminus C(O)-NH2]",number of apoptotic cells (annexin V),SH-SY5Y cells [1],greatly reduced
same,effect on GTPase activity of OPA1,OPA1,no effects
same,Bcl-2 levels on the mitochondria,SH-SY5Y cells [2],improved decreased Bcl-2 levels
same,accumulation of active Bax on the mitochondria,SH-SY5Y cells [2],greatly reduced accumulation of active Bax
same,release of cytochrome c from the mitochondria,SH-SY5Y cells [2],blocked the release of cytochrome c
same,mitochondrial fragmentation,[3],reduced mitochondrial fragmentation
same,specifically inhibited Drp1 GTPase activity,"Recombinant protein Drp1; in vitro GTPase assay, n=3, first statement of b271",30%
same,inhibition in the GTPase activity of recombinant Drp1,"Recombinant protein Drp1; recombinant Drp1 25 ng, 30 min incubation with peptide, FIG. 2A",50%
same,MPP+-induced production of mitochondrial superoxide,SH-SY5Y cells [4],abolished
